Source: ChEMBL document CHEMBL5331054, “Antibacterial quaternary ammonium agents: Chemical diversity and biological mechanism” (Eur J Med Chem, 2022)

How the values were obtained:
Staphylococcus aureus [1] = assay: Antibacterial activity against Staphylococcus aureus assessed as bacterial growth inhibition incubated for 72 hrs by microdilution assay; assay type: functional, organism-based; details: Staphylococcus aureus; time 72 hrs
Enterococcus faecalis [2] = assay: Antibacterial activity against Enterococcus faecalis assessed as bacterial growth inhibition incubated for 72 hrs by microdilution method; assay type: functional
Escherichia coli [3] = assay: Antibacterial activity against Escherichia coli assessed as bacterial growth inhibition incubated for 72 hrs by microdilution method; assay type: functional; details: Escherichia coli, 72 h, read-out: MIC
Pseudomonas aeruginosa [4] = assay: Antibacterial activity against Pseudomonas aeruginosa assessed as bacterial growth inhibition incubated for 72 hrs by microdilution method; assay type: functional; details: Pseudomonas aeruginosa, 72 h, read-out: MIC
Staphylococcus aureus [5] = assay: Antibiofilm activity against Staphylococcus aureus ATCC 33591 assessed as reduction in biofilm activity; assay type: functional
Staphylococcus aureus [6] = assay: Antibacterial activity against methicillin-resistant Staphylococcus aureus assessed as bacterial growth inhibition; assay type: functional
Staphylococcus aureus [7] = assay: Antimicrobial activity against community acquired methicillin-resistant Staphylococcus aureus assessed as reduction in bacterial cell growth; assay type: functional
Enterococcus faecalis [8] = assay: Antimicrobial activity against Enterococcus faecalis; assay type: functional
Escherichia coli [9] = assay: Antimicrobial activity against Escherichia coli at 50 uM; assay type: functional
Escherichia coli [10] = assay: Antibacterial activity against Escherichia coli assessed as reduction in bacterial cell growth; assay type: functional
Klebsiella pneumoniae = assay: Antibacterial activity against Klebsiella pneumoniae ATCC 700603 assessed as inhibition of bacterial cell growth
Pseudomonas aeruginosa [11] = assay: Antibacterial activity against Pseudomonas aeruginosa ATCC 10145 by broth microdilution method; assay type: functional
Staphylococcus aureus [12] = assay: Antibacterial activity against methicillin-resistant Staphylococcus aureus assessed as bacterial cell growth inhibition incubated for 18 hrs by microbroth dilution method; assay type: functional
Escherichia coli [13] = assay: Antibacterial activity against Escherichia coli ATCC 11229 assessed as reduction in bacterial cell growth incubated for 24 hrs by microtiter plate reader assay; assay type: functional
Bacillus subtilis = assay: Antibacterial activity against Bacillus subtilis ATCC 6633 assessed as reduction in bacterial cell growth incubated for 24 hrs by microtiter plate reader assay; assay type: functional
Salmonella enterica = assay: Antibacterial activity against Salmonella enterica ATCC 14028 assessed as reduction in bacterial cell growth incubated for 24 hrs by microtiter plate reader assay; assay type: functional
Staphylococcus aureus [14] = assay: Antibacterial activity against Staphylococcus aureus; assay type: functional
Enterococcus faecalis [15] = assay: Antibacterial activity against Enterococcus faecalis ATCC 29212 assessed as inhibition of bacterial growth incubated for 16 to 18 hrs by broth microdilution method; assay type: functional; details: time 16-18 hrs
Escherichia coli [16] = assay: Antibacterial activity against Escherichia coli ATCC 25922 assessed as inhibition of bacterial growth incubated for 16 to 18 hrs by broth microdilution method; assay type: functional; details: time 16-18 hrs
Pseudomonas aeruginosa [17] = assay: Antibacterial activity against Pseudomonas aeruginosa ATCC 27853 assessed as inhibition of bacterial growth incubated for 16 to 18 hrs by broth microdilution method; assay type: functional; details: time 16-18 hrs
Staphylococcus aureus [18] = assay: Antibacterial activity against methicillin-resistant Staphylococcus aureus assessed as bacterial growth inhibition measured after 16 to 18 hrs by broth microdilution method; assay type: functional; details: time 16-18 hrs
Staphylococcus aureus [19] = assay: Antibacterial activity against Staphylococcus aureus ATCC 700699 assessed as reduction in bacterial cell growth incubated for 24 hrs by microtiter plate reader assay; assay type: functional
Staphylococcus aureus [20] = assay: Antibacterial activity against methicillin resistant Staphylococcus aureus assessed as reduction in bacterial cell growth incubated for 18 to 24 hrs by microbroth dilution assay; assay type: functional; details: time 18-24 hrs
Staphylococcus aureus [21] = assay: Antibacterial activity against Staphylococcus aureus ATCC 29213 assessed as inhibition of bacterial growth incubated for 16 hrs by CLSI based broth microdilution method; assay type: functional
Enterococcus faecalis [22] = assay: Antibacterial activity against Enterococcus faecalis ATCC 29212 assessed as inhibition of bacterial growth incubated for 16 hrs by CLSI based broth microdilution method; assay type: functional
Enterococcus faecalis [23] = assay: Antibacterial activity against vancomycin-resistant Enterococcus faecalis assessed as inhibition of bacterial growth incubated for 16 hrs by CLSI based broth microdilution method; assay type: functional
Pseudomonas aeruginosa [24] = assay: Antibacterial activity against Pseudomonas aeruginosa ATCC 27853 assessed as inhibition of bacterial growth incubated for 16 hrs by CLSI based broth microdilution method; assay type: functional
Staphylococcus aureus [25] = assay: Antibacterial activity against methicillin-sensitive Staphylococcus aureus assessed as reduction in microbial growth; assay type: functional
Pseudomonas aeruginosa [26] = assay: Antibacterial activity against Pseudomonas aeruginosa assessed as reduction in bacterial cell growth; assay type: functional
Staphylococcus aureus [27] = assay: Antibacterial activity against methicillin-resistant Staphylococcus aureus […] assessed as reduction in bacterial cell growth; assay type: functional

CCCCCCCCCCCCC[N+](C)(C)CCCN(C)CCC[N+](C)(C)CCCCCCCCCCCC.[Br-].[Br-]
MIC (Staphylococcus aureus [1]): 1 µM | MIC (Enterococcus faecalis [2]): < 0.25 µM | MIC (Escherichia coli [3]): < 0.25 µM | MIC (Pseudomonas aeruginosa [4]): 4 µM | MBEC (Staphylococcus aureus [5]): 50 µM

CCCCCCCCCCC[n+]1ccc(CCCc2cc[n+](CCCCCCCCCCC)cc2)cc1
MIC (Staphylococcus aureus [1]): 0.25 µM | MIC (Staphylococcus aureus [6]): 0.25 µM | MIC (Staphylococcus aureus [7]): 0.25 µM | MIC (Enterococcus faecalis [8]): 0.5 µM | MIC (Escherichia coli [9]): 0.5 µM

CCCCCCCCC[n+]1cccc(Oc2ccc(-c3ccc(Oc4ccc[n+](CCCCCCCCC)c4)cc3)cc2)c1.[I-].[I-]
MIC (Staphylococcus aureus [6]): < 0.25 µg/mL | MIC (Escherichia coli [10]): 0.5 µg/mL | MIC (Klebsiella pneumoniae): 8 µg/mL

CCCCCCCC[n+]1ccc(SCCCCCCSc2cc[n+](CCCCCCCC)cc2)cc1.[Br-].[Br-]
MIC (Pseudomonas aeruginosa [11]): 8 µg/mL | MIC (Staphylococcus aureus [12]): 8 µg/mL

CCCCCCCCCCCCCCCCCCNC(=O)CC[C@@H](C)[C@H]1CC[C@H]2[C@@H]3[C@H](OC(=O)C[n+]4ccccc4)C[C@@H]4C[C@H](OC(=O)C[n+]5ccccc5)CC[C@]4(C)[C@H]3C[C@H](O)[C@]12C.[Cl-].[Cl-]
MIC (Escherichia coli [13]): 0.8 µg/mL | MIC (Bacillus subtilis): 0.8 µg/mL | MIC (Salmonella enterica): 1.6 µg/mL

CCCCCCCCCCCC[N+]12CC[N+](CCCCCCCCCCCC)(CC1)CC2
MIC (Staphylococcus aureus [14]): 0.25 µM | MIC (Enterococcus faecalis [15]): 4 µM | MIC (Escherichia coli [16]): 2 µM | MIC (Pseudomonas aeruginosa [17]): 8 µM | MIC (Staphylococcus aureus [18]): 0.5 µM

CCCCCCCCCCCCCCCCCC[N+](C)(C)Cc1cnc(C)c(O)c1C.Cl.[Cl-]
MIC (Staphylococcus aureus [19]): 0.5 µg/mL

CC(C)(C)n1cc[n+](CCCCCCCCCCCC[n+]2ccn(C(C)(C)C)c2)c1.[Br-].[Br-]
MIC (Escherichia coli [13]): 0.5 µg/mL | MIC (Staphylococcus aureus [20]): 0.5 µg/mL | MIC (Staphylococcus aureus [21]): 0.25 µg/mL | MIC (Enterococcus faecalis [22]): 0.5 µg/mL | MIC (Enterococcus faecalis [23]): 0.5 µg/mL | MIC (Pseudomonas aeruginosa [24]): 4 µg/mL

CCCCCCCCCCC[n+]1ccc(CCc2cc[n+](CCCCCCCCCCC)cc2)cc1
MIC (Staphylococcus aureus [25]): 1 µM | MIC (Pseudomonas aeruginosa [26]): 4 µM

CCCCCCCCCCCC[n+]1cccc(C[N+](C)(C)CCCCCCCCCCCC)c1
MIC (Staphylococcus aureus [27]): 1 µM
